Literature values as cited in patent publication US8680055B2, “Methods for decreasing steroidogenesis in prostate cancer cells” (University of Southern California, priority 2009, dated 2014).

Legend:
advanced CRPC = details: phase II trials
[1] = test system: PCa resistant to multiple hormonal therapies; details: chemotherapy-naive men

SMILES	median duration of response (advanced CRPC)	response rate by PSA working group (PSAWG) criteria (advanced CRPC)	patients with declines in PSA ≧90% ([1]; 6 patients)	patients with declines in PSA ≧50% ([1]; 12 patients)	patients with declines in PSA ≧30% ([1]; 14 patients)
CC(=O)N1CCN(c2ccc(OCC3COC(Cn4ccnc4)(c4ccc(Cl)cc4Cl)O3)cc2)CC1 (centres unmarked) [ketoconazole]	up to 7 months	40-62%	–	–	–
CC(=O)O[C@H]1CC[C@@]2(C)C(=CC[C@@H]3[C@@H]2CC[C@]2(C)C(c4cccnc4)=CC[C@@H]32)C1 [abiraterone acetate]	–	–	29%	57%	66%
